Assay results as given in patent US8580751B2, “Esterified α-galactosylceramide” (Riken, priority 2008, dated 2013).

Key:
[1] = tested on: human NKT cells; settings: human system; cited from earlier work
[2] = tested on: NKT cells; settings: cited from earlier work
[3] = tested on: IFN-γ; assay: IFN-γ content in serum after intraperitoneal administration of synthetic glycolipid to mouse (sandwich ELISA); assay type: in vivo; settings: 100 μg/kg body weight intraperitoneally, C57BL/6 mice, 6-24 hr (compounds 23, 24) or 3-60 hr (compound 33) after administration
Method: (§1) A 1 mg/mL dimethyl sulfoxide (DMSO) solution was prepared for each of α-GalCer, compound 23 and compound 24. The solutions were diluted with saline (manufactured by Otsuka Pharmaceutical Co., Ltd.) containing 0.5% Tween 20 (Bio-Rad) such that the dose would be 100 μg/kg body weight when 200 μL was intraperitoneally administered to one mouse.
(§2) Each of the prepared solutions (200 μL) of compounds 23 and 24 was intraperitoneally injected to C57BL/6 mice (2 per group). α-GalCer was used as a control substance, and 200 μL of α-GalCer solution prepared to a dose of 100 μg/kg body weight according to a similar method was injected intraperitoneally. A group administered with a medium (200 μL of saline containing 0.5% Tween 20) was taken as a negative control. The blood (80 μL) was taken from the orbital plexus venosus after the lapse of 6, 12 and 24 hr from the administration, and the serum was prepared.
(§3) The content of IFN-γ in the serum after lapse of 6, 12 and 24 hr from the administration was measured by sandwich ELISA (ENDOGEN). In addition, the content of IL-4 in the serum after lapse of 12 hr from the administration was measured by Cytometric bead array system (BD Biosciences), which is one kind of the ELISA method.
(§4) Using α-GalCer and compound 33, and according to a method similar to the above-mentioned Experimental Example 1, the blood (80 μL) was taken from the orbital plexus venosus after the lapse of 3, 6, 12, 24, 36, 48 and 60 hr from the administration, and the serum was prepared.
(§5) The content of IFN-γ in the serum after lapse of 3, 6, 12, 24, 36, 48 and 60 hr from the administration was measured by a method similar to the above-mentioned Experimental Example 1. In addition, the content of IL-4 in the serum after lapse of 3, 6 and 12 hr from the administration was measured by a method similar to the above-mentioned Experimental Example 1.

[4] = tested on: IL-4; assay: IL-4 content in serum after intraperitoneal administration of synthetic glycolipid to mouse (Cytometric bead array system); assay type: in vivo; settings: 100 μg/kg body weight intraperitoneally, C57BL/6 mice, 12 hr (compounds 23, 24) or 3, 6, 12 hr (compound 33) after administration
Method: as §1, §2, §3, §4, §5

[5] = tested on: NKT cells; settings: series of synthetic analogs of α-galactosylceramide; cited from earlier work

Row | Structure (SMILES) | activity on human NKT cells in vitro [1] | production of IFN-γ as compared to α-GalCer [3] | production of IL-4 as compared to α-GalCer [4] | also measured
1 | CCCCCCCCCCCCCCCCCCCCCCCCCC(=O)N[C@@H](CO[C@H]1CC(CO)[C@H](O)C(O)C1O)[C@H](O)[C@H](O)CCCCCCCCCCCCCC (stereo partly shown) | strong activity | – | – | IFN-γ production by NKT cells [2]: strongly induces
2 | CCCCCCC#CCCCCCC[C@@H](O)[C@@H](O)[C@H](CO[C@H]1O[C@H](CO)[C@H](O)[C@H](O)[C@H]1O)OC(=O)CCCCCCCCCCCCCCCCCCCCCCCCC [Compound 23, (2S,3R,4R)-3,4-dihydroxy-2-hexacosanoyloxy-11-octadecyn-1-yl α-D-galactopyranoside] | – | equivalent or higher | lower | –
3 | CCCCCCCCCCCCCCCCCCCCCCCCCC(=O)O[C@@H](CO[C@H]1O[C@H](CO)[C@H](O)[C@H](O)[C@H]1O)[C@H](O)[C@H](O)CCCCCCCCCCCCCC [Compound 24, (2S,3R,4R)-3,4-dihydroxy-2-hexacosanoyloxyoctadecyl α-D-galactopyranoside] | – | equivalent or higher | lower | –
4 | CCCCCCCCCCCCCCCCCCCCCCCCCC(=O)O[C@@H](CO[C@H]1O[C@H](COC)[C@H](O)[C@H](O)[C@H]1O)[C@H](O)[C@H](O)CCCCCCCCCCCCCC [Compound 33, (2S,3R,4R)-3,4-dihydroxy-2-hexacosanoyloxyoctadecyl 6-O-methyl-α-D-galactopyranoside] | – | equivalent or higher | lower | –
5 | CCCCCCCCCCCCCCCCCCCCCCCCCC(=O)N[C@@H](CC[C@H]1OC(CO)[C@H](O)C(O)C1O)[C@H](O)[C@H](O)CCCCCCCCCCCCCC (stereo partly drawn) [α-C-GalCer] | very weak activity | – | – | –
6 | CCCCCCCCCCCCCCCCCCCCCCCCCC(=O)N[C@@H](CO[C@H]1OC(CO)[C@H](O)C(O)C1O)[C@H](O)[C@H](O)CCCCCCCCCCCCCC (stereo partly drawn) [α-GalCer] | – | – | – | immunostimulatory activity [5]: induces the strongest activity
